Experiments:
[1] = system: Spontaneously Hypertensive Rats; test: Spontaneously Hypertensive Rat (SHR) Test, hemodynamics in anesthetized rats; type: in vivo, Spontaneously Hypertensive Rat (Sprague Dawley); details: for HR (Heart Rate: change from basal) / LVPT (time for Left Ventricular Pressure to decay from peak to 50%, % of basal) / MBP (Mean Blood Pressure: change from basal) / RT64 (change in time from maximal relaxation, % of basal) / dP/dT40 (change in rate of systolic pressure increase of left ventricle measured at 40 mm Hg from basal): anesthetized SHR
Protocol: Male Retired Breeder Spontaneously Hypertensive Rats (SHR) (Sprague Dawley, 250-350 g) are anesthetized by i.p. injection of Sodium Thiopental 50 mg/kg. A catheter is inserted into the duodenum for maintenance of anesthesia throughout the experiment. A tube is inserted through a lateral incision in the trachea. The left carotid artery is exposed and a Millar SPR-249 (2-F) pressure probe is inserted and passed into the left ventricle of the heart. Left ventricular pressure (LVP), the first differential of the LVP (+dP/dT,-dP/dT), the left ventricular end diastolic pressure (LVEDP) and the differential of the increase in LVP measured at a constant pressure of 40 mm Hg (dP/dT40) are measured via this probe. In addition to these parameters, two indices of myocardial diastolic relaxation are measured namely the RT64 (time in msec from the peak derivative of maximal relaxation to 64% of that value) and the Left Ventricular Pressure Time Constant (LVPT), the half-time for decay of the LVP from peak pressure to 50% of that pressure. […] Results also are shown graphically on a Gould RS3800 Recorder. A saline filled cannula is passed into the femoral vein for infusion of drugs and one is placed into the femoral artery for measurement and recording or arterial blood pressure (Statham P23Db pressure transducer). From this signal the diastolic, systolic and mean blood pressure are derived as well as the heart rate. After surgery, the preparation is left to stabilize for 45 minutes after which compounds, dissolved in polyethylene glycol, are slowly infused with a Sage Instruments Infusion pump into the femoral vein. […] After completion of the last infusion, hemodynamic parameters are observed over 30 min and then a standard dose of 3.0 mg/kg milrinone is infused (over 5 min) to test preparation responsiveness. In the SHR, the following results were obtained for several known cardiovascular agents and for the compound of Examples 10,11,15 and 16.

rat aorta = test: Rat Aorta Protocol: relaxation of phenylephrine-contracted rings of rat aorta (endothelium removed)
Protocol: Rings of rat aorta (endothelium removed) were prepared for the measurement of isometric force in isolated tissue organ chambers essentially as previously described by T. J. Rimele et al in the Journal of Pharmacol. Exp. Ther. 245:102-111 (1988). The experimental portion of the protocol began with the addition of methylene blue (1×10^-5 M) and propranolol (1×10^-6 M) to each organ chamber to inhibit basal cGMP accumulation due to soluble guanylate cyclase and beta-adrenoceptors.Phenylephrine (1×10^-7 M) was then added and the rings were allowed to obtain a stable contractile response after which time, the test compound was added in a cumulative fashion. The relaxation induced by each concentration of the test compound was expressed as a percentage of the maximal relaxation produced by nitroprusside (1×10^-4 M) The results were graphically represented as a plot of the percentage relaxation vs. the negative log of the molar concentration of the test compound. The IC50 (concentration of test compound which produced a relaxation equivalent to 50% of the maximal relaxation induced by nitroprusside) was determined for each tissue.

IC50 (rat aorta; phenylephrine 1×10^-7 M contracted, methylene blue and propranolol present, read-out: IC50 (concentration producing relaxation equivalent to 50% of the maximal relaxation induced by nitroprusside)): 2.1 µM
Compound: COC(=O)C1=C(C)NC(C)=C(C(=O)OCCNC(=O)COc2ccc(-c3cc(C#N)c(=O)[nH]c3C)cc2)C1c1cccc([N+](=O)[O-])c1 (racemic) [Example 10, (±)-2,6-dimethyl-3-carbomethoxy-4-(3-nitrophenyl)-5-{4-[1,2-dihydro-2-oxo-3-cyano-6-methyl-5(1H)-pyridy]phenoxymethylenecarboxyamidoethyloxycarbonyl}-1,4-dihydropyridine]
HR (Heart Rate: change from basal) ([1]; 0.3 mg/kg i.v.): -1.8%
LVPT (time for Left Ventricular Pressure to decay from peak to 50%, % of basal) ([1]; 0.3 mg/kg i.v.): -5.1%
MBP (Mean Blood Pressure: change from basal) ([1]; 0.3 mg/kg i.v.): -2.6%
RT64 (change in time from maximal relaxation, % of basal) ([1]; 0.3 mg/kg i.v.): -2.6%
dP/dT40 (change in rate of systolic pressure increase of left ventricle measured at 40 mm Hg from basal) ([1]; 0.3 mg/kg i.v.): 0%
HR (Heart Rate: change from basal) ([1]; 1.0 mg/kg i.v.): -2.5%
LVPT (time for Left Ventricular Pressure to decay from peak to 50%, % of basal) ([1]; 1.0 mg/kg i.v.): -7.4%
MBP (Mean Blood Pressure: change from basal) ([1]; 1.0 mg/kg i.v.): -3.8%
RT64 (change in time from maximal relaxation, % of basal) ([1]; 1.0 mg/kg i.v.): -5.2%
dP/dT40 (change in rate of systolic pressure increase of left ventricle measured at 40 mm Hg from basal) ([1]; 1.0 mg/kg i.v.): 1.5%
HR (Heart Rate: change from basal) ([1]; 3.0 mg/kg i.v.): 1.1%
LVPT (time for Left Ventricular Pressure to decay from peak to 50%, % of basal) ([1]; 3.0 mg/kg i.v.): -14%
MBP (Mean Blood Pressure: change from basal) ([1]; 3.0 mg/kg i.v.): -6.3%
RT64 (change in time from maximal relaxation, % of basal) ([1]; 3.0 mg/kg i.v.): -13.2%
dP/dT40 (change in rate of systolic pressure increase of left ventricle measured at 40 mm Hg from basal) ([1]; 3.0 mg/kg i.v.): 4.2%
HR (Heart Rate: change from basal) ([1]; 10 mg/kg i.v.): 6.4%
LVPT (time for Left Ventricular Pressure to decay from peak to 50%, % of basal) ([1]; 10 mg/kg i.v.): -25%
MBP (Mean Blood Pressure: change from basal) ([1]; 10 mg/kg i.v.): -23%
RT64 (change in time from maximal relaxation, % of basal) ([1]; 10 mg/kg i.v.): -19.3%
dP/dT40 (change in rate of systolic pressure increase of left ventricle measured at 40 mm Hg from basal) ([1]; 10 mg/kg i.v.): 24.7%
effect on blood pressure (in words) ([1]; 0.3 to 10 mg/kg i.v., SHR): hypotension
effect on dP/dT40 (in words) ([1]; 0.3 to 10 mg/kg i.v., SHR): an increase in dP/dT40
effect on heart rate (in words) ([1]; 0.3 to 10 mg/kg i.v., SHR): little change in heart rate
effect on myocardial relaxation time constants (in words) ([1]; 0.3 to 10 mg/kg i.v., SHR): reduction in the time constants for myocardial relaxation
Emax at 100 µM (rat aorta; highest dose tested (100 micromolar), read-out: maximal response (relaxation, % of maximal relaxation by nitroprusside)): 96%
